Experimental findings from EP1379283B1, “IDENTIFICATION OF TARGET-SPECIFIC FOLDING SITES IN PEPTIDES AND PROTEINS” (Palatin Technologies, Inc., priority 2000, dated 2002) are described below.

Square brackets hold non-standard residues; d marks the D form. Ends that are not written are not given here. dChg = N[C@@H](C(=O)O)C1CCCCC1; Chg = N[C@H](C(=O)O)C1CCCCC1; Orn = NCCC[C@H](N)C(=O)O; Dap = NC[C@H](N)C(=O)O; Sar = CNCC(=O)O

What is called % Inhibition is the drop in the measured response relative to a control, in per cent.

For assay [1], the target named is T1, uPA receptor (Homo sapiens, UniProt Q03405).
T1 construct: endogenous in cells; host or cells: U937 cells
Nature of the assay: uPA receptor-binding assay using U937 cells and ATF as competitive ligand. To be noted: for % Inhibition at 1 µM: 1 µM metallopeptide, U937 cells, ATF as competitive receptor binding ligand.

For assay [2], the target named is T2, oxytocin receptor (Rattus norvegicus, UniProt P70536).
T2 construct: cell membranes prepared from rat uterus; from tissue; host or cells: rat uterus membranes
T2 sequence (P70536 1-388): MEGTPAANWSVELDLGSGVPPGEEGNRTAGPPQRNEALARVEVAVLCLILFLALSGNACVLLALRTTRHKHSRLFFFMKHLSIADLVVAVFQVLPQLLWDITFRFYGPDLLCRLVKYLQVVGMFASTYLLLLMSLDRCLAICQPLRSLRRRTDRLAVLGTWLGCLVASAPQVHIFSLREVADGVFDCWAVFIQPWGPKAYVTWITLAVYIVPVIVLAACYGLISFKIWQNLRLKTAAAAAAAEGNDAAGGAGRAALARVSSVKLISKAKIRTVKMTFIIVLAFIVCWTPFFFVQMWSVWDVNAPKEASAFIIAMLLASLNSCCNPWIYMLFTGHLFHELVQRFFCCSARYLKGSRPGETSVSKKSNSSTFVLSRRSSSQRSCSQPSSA
Nature of the assay: oxytocin receptor binding, 3H-oxytocin, cell membranes from rat uterus. To be noted: for % Inhibition at 1 µM Oxytocin Receptor: rat uterus membranes, 3H-oxytocin. As for the experimental part: The screening of metallopeptides for binding to oxytocin receptor was done using cell membranes prepared from rat uterus. […] The membrane preparations (10 - 50 µg/well) were incubated with 412-800 pM ^3H-oxytocin in HEPES Buffer containing 0.2% bovine serum albumin along with a test compound (1 µM final assay concentration) for 2 hours at 4° C. Non-specific binding was determined by addition of 10^-6 M oxytocin instead of the test compound. After incubation, the membranes were filtered and washed three times with ice-cold PBS. The membranes were air-dried and punched directly into scintillation vials. After addition of the scintillation cocktail, the vials were capped and gently shaken for 12 hours to dissolve the radioactivity contained in the filters. The vials were then read for tritium counts in a scintillation counter. Specific binding was determined as the radioactivity in wells containing ^3H-oxytocin alone minus the radioactivity in wells containing 10^-6 M oxytocin. The assay was performed in triplicates. The activity profile for the test compounds were generated by their ability to inhibit specific binding of the radiotracer to its receptor.

Assay [3] addresses T3, vasopressin-1 receptor (Rattus norvegicus, UniProt P30560).
T3 construct: cell membranes prepared from rat liver; from tissue; host or cells: rat liver membranes
Description: vasopressin-1 receptor binding, 3H-vasopressin-1 antagonist, cell membranes from rat liver. As for the experimental part:
The screening of compounds for vasopressin-1 receptor was performed using cell membranes prepared from rat liver. The assay was essentially performed as described above for the oxytocin receptor assay. In this assay 2-4 nM ^3H-vasopressin-1 antagonist (obtained from Perkin Elemer- NEN Life Sciences) was used as the radiotracer and Arg^8-vasopressin (1 µM final concentration in the assay) was used to determine non-specific binding. The assay was performed in triplicates. Activity profile for the test compounds were generated by their ability to inhibit specific binding of the radiotracer to its receptor.

The target in assay [4] is T4, angiotensin-II receptor (Homo sapiens, UniProt P30556).
T4 construct: cell membranes obtained from human neuroblastoma cells (KAN-TS); endogenous in cells; host or cells: KAN-TS human neuroblastoma cells (membranes)
T4 sequence (P30556 1-359): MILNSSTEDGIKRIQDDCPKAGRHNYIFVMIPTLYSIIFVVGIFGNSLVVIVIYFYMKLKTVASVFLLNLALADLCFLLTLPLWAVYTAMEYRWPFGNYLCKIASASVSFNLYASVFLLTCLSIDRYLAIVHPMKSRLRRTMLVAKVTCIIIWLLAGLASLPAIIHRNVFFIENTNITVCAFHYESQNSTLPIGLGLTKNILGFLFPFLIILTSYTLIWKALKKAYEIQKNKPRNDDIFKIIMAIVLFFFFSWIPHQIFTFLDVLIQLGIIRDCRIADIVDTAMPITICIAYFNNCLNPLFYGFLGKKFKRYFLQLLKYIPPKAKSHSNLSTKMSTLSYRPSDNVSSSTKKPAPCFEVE
Description: angiotensin-II receptor binding, radioiodinated angiotensin II ligand, membranes of human neuroblastoma cells (KAN-TS). To be noted: 1 µM; KAN-TS cell membranes; 125I-Tyr4, Sar1, Ile8-Angiotensin II. As for the experimental part: The screening of compounds for binding to the angiotensin-II receptor was performed using cell membranes obtained from human neuroblastoma cells (KAN-TS). The assay was performed in triplicates, generally as described in Example 4 for oxytocin, except for measurement of receptor bound radioactivity. For angiotensin, a radioiodinated tracer ligand was used (instead of a tritiated ligand), which radioiodinated tracer facilitated direct measurement of bound radioactivity using a gamma counter. A final 1-3 nM concentration of ^125I-Tyr^4, Sar^1, Ile^8-Angiotensin II ligand (obtained from Perkin Elemer - NEN Life Sciences) was used as radiotracer and angiotensin-II (1 µM final assay concentration) was used to measure non-specific binding. After filtration of the incubation medium, followed by washings, drying the filters and punching the filters into test tubes, the filters were counted for radioactivity in a gamma counter. An activity profile for the test compounds was generated by ability to inhibit specific binding of the radiotracer to its receptor.

[5] abbreviates: Table 30, oxytocin ligand library.
The mark [6] stands for this setting: Table 29, vasopressin ligand library.

T1 sequence (Q03405 23-335): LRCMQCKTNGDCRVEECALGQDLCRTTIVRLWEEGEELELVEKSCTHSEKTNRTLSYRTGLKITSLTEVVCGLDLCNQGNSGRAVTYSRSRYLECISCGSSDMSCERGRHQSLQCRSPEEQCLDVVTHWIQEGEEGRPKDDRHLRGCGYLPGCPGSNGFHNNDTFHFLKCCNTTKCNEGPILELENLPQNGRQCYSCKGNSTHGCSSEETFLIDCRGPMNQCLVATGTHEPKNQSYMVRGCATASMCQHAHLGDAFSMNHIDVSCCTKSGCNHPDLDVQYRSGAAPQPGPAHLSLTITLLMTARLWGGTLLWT
T3 sequence (P30560 whole entry): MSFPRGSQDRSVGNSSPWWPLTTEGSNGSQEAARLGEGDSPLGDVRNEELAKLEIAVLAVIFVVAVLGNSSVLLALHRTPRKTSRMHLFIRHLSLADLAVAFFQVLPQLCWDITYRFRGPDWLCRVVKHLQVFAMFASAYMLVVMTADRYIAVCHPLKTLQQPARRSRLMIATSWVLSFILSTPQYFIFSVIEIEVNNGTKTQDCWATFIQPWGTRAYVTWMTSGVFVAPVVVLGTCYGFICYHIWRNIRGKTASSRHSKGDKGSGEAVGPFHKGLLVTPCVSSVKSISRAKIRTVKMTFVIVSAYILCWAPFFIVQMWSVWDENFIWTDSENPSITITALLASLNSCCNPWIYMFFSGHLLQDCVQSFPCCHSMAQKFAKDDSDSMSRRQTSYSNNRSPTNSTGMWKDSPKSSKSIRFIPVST

For the substance “Ac-Val-Ser-Asn-Cys-Lys-Tyr-Phe-Ser-Asn-Ile-His-Trp-NH2 (Ac-VSNCKYFSNIHW-NH2; not fully specified (bridges); printed as Ac-Val-Ser-Asn-Cys-Lys-Tyr-Phe-Ser-Asn-Ile-His-Trp-NH2; also: oxorhenium(V) N3S1 metal chelate (X-X-Cys)) [SEQ ID NO:5]”, in assay [1], the “% Inhibition at 1 µM” value is 0.0%.

For the substance “Ac-Val-Ser-Asn-Lys-Cys-Tyr-Phe-Ser-Asn-Ile-His-Trp-NH2 (Ac-VSNKCYFSNIHW-NH2; not fully specified (bridges); printed as Ac-Val-Ser-Asn-Lys-Cys-Tyr-Phe-Ser-Asn-Ile-His-Trp-NH2; also: oxorhenium(V) N3S1 metal chelate (X-X-Cys)) [SEQ ID NO:6]”, in assay [1], the “% Inhibition at 1 µM” value amounted to 13.0%.

Take “Ac-Val-Ser-Asn-Lys-Tyr-Cys-Phe-Ser-Asn-Ile-His-Trp-NH2 (Ac-VSNKYCFSNIHW-NH2; not fully specified (bridges); printed as Ac-Val-Ser-Asn-Lys-Tyr-Cys-Phe-Ser-Asn-Ile-His-Trp-NH2; also: oxorhenium(V) N3S1 metal chelate (X-X-Cys)) [SEQ ID NO:7]”: the “% Inhibition at 1 µM” value in assay [1] is 18.0%.

Consider “Ac-Val-Ser-Asn-Lys-Tyr-Phe-Cys-Ser-Asn-Ile-His-Trp-NH2 (Ac-VSNKYFCSNIHW-NH2; not fully specified (bridges); printed as Ac-Val-Ser-Asn-Lys-Tyr-Phe-Cys-Ser-Asn-Ile-His-Trp-NH2; also: oxorhenium(V) N3S1 metal chelate (X-X-Cys)) [SEQ ID NO:8]”, for which the “% Inhibition at 1 µM” value in assay [1] stood at 0.0%.

As to “Ac-Val-Ser-Asn-Lys-Tyr-Phe-Ser-Asn-Cys-Ile-His-Trp-NH2 (Ac-VSNKYFSNCIHW-NH2; not fully specified (bridges); printed as Ac-Val-Ser-Asn-Lys-Tyr-Phe-Ser-Asn-Cys-Ile-His-Trp-NH2; also: oxorhenium(V) N3S1 metal chelate (X-X-Cys)) [SEQ ID NO:10]”, the “% Inhibition at 1 µM” value in assay [1] was 32.0%.

For “Ac-Val-Ser-Asn-Lys-Tyr-Phe-Ser-Asn-Ile-Cys-His-Trp-NH2 (Ac-VSNKYFSNICHW-NH2; not fully specified (bridges); printed as Ac-Val-Ser-Asn-Lys-Tyr-Phe-Ser-Asn-Ile-Cys-His-Trp-NH2; also: oxorhenium(V) N3S1 metal chelate (X-X-Cys)) [SEQ ID NO:11]”, in assay [1], the “% Inhibition at 1 µM” value came to 0.0%.

On to “Ac-Val-Ser-Asn-Lys-Tyr-Phe-Ser-Asn-Ile-His-Cys-Trp-NH2 (Ac-VSNKYFSNIHCW-NH2; not fully specified (bridges); printed as Ac-Val-Ser-Asn-Lys-Tyr-Phe-Ser-Asn-Ile-His-Cys-Trp-NH2; also: oxorhenium(V) N3S1 metal chelate (X-X-Cys)) [SEQ ID NO:3]”, for which the “% Inhibition at 1 µM” value in assay [1] was 106.0%. Further, the “relative potency in uPA receptor binding” value in assay [1] (compared with the other metallopeptides of Table 1) is “most potent”.

Regarding “Ac-Val-Ser-Asn-Lys-Tyr-Phe-Ser-Asn-lie-His-Trp-Cys-NH2 [SEQ ID NO:12]”, the “% Inhibition at 1 µM” value in assay [1] was 0.0%.

As to “Ac-Val-Ser-Asn-Lys-Tyr-Phe-Ser-Cys-Asn-Ile-His-Trp-NH2 (Ac-VSNKYFSCNIHW-NH2; not fully specified (bridges); printed as Ac-Val-Ser-Asn-Lys-Tyr-Phe-Ser-Cys-Asn-Ile-His-Trp-NH2; also: oxorhenium(V) N3S1 metal chelate (X-X-Cys)) [SEQ ID NO:9]”, the “% Inhibition at 1 µM” value in assay [1] was determined as 35.0%.

With “Ac-Val-Ser-Cys-Asn-Lys-Tyr-Phe-Ser-Asn-Ile-His-Trp-NH2 (Ac-VSCNKYFSNIHW-NH2; not fully specified (bridges); printed as Ac-Val-Ser-Cys-Asn-Lys-Tyr-Phe-Ser-Asn-Ile-His-Trp-NH2; also: oxorhenium(V) N3S1 metal chelate (X-X-Cys)) [SEQ ID NO:4]”, in assay [1], the “% Inhibition at 1 µM” value stood at 0.0%.

Turning to “Ala-Tyr-Ile-Gln-Cys-Asn-Ala-Pro-Leu-Gly-NH2 (AYIQCNAPLG-NH2; not fully specified (bridges); printed as Ala-Tyr-Ile-Gln-Cys-Asn-Ala-Pro-Leu-Gly-NH2; also: oxorhenium(V) N3S1 metal chelate (X-X-Cys)) [SEQ ID NO:156]”, the “% Inhibition at 1 µM Oxytocin Receptor” value in assay [2] (setting [5]) was determined as 18%. Further, the “activity at oxytocin receptor” value in assay [2] (conclusion from Table 30) was “active”. In addition, the “% Inhibition at 1 µM Vasopressin-1 Receptor” value in assay [3] (setting [5]) came out at 0%.

For “Caca-D-Trp-Ile-Cys-Thr-Dap-Ala-Pro-Orn-NH2”, in assay [2] (setting [6]), the “% Inhibition at 1 µM Oxytocin Receptor” value was found to be 0%. In assay [3] (setting [6]), the “% Inhibition at 1 µM Vasopressin-1 Receptor” value came out at 52%.

Consider “Caca-D-Trp-Ile-Thr-Cys-Dap-Ala-Pro-Orn-NH2”, for which, in assay [2] (setting [6]), the “% Inhibition at 1 µM Oxytocin Receptor” value is given as 0%. In assay [3] (setting [6]), the “% Inhibition at 1 µM Vasopressin-1 Receptor” value turned out to be 0%.

As to “Caca-D-Trp-Ile-Thr-Dap-Ala-Ala-Cys-Orn-NH2”, in assay [2] (setting [6]), the “% Inhibition at 1 µM Oxytocin Receptor” value was 0%. Besides, in assay [3] (setting [6]), the “% Inhibition at 1 µM Vasopressin-1 Receptor” value is listed as 0%.

Take “Caca-D-Trp-Ile-Thr-Dap-Ala-Ala-Orn-Cys-NH2”: in assay [2] (setting [6]), the “% Inhibition at 1 µM Oxytocin Receptor” value is given as 0%. Also, the “% Inhibition at 1 µM Vasopressin-1 Receptor” value in assay [3] (setting [6]) turned out to be 23%.

On to “Caca-D-Trp-Ile-Thr-Dap-Ala-Cys-Ala-Orn-NH2”, for which, in assay [2] (setting [6]), the “% Inhibition at 1 µM Oxytocin Receptor” value came to 0%. The “% Inhibition at 1 µM Vasopressin-1 Receptor” value in assay [3] (setting [6]) was 0%.

With “Caca-D-Trp-Ile-Thr-Dap-Ala-Cys-Pro-Orn-NH2”, in assay [2] (setting [6]), the “% Inhibition at 1 µM Oxytocin Receptor” value is 0%. For the same substance, the “% Inhibition at 1 µM Vasopressin-1 Receptor” value in assay [3] (setting [6]) is reported as 0%.

For “Caca-D-Trp-Ile-Thr-Dap-Cys-Ala-Pro-Orn-NH2”, the “% Inhibition at 1 µM Oxytocin Receptor” value in assay [2] (setting [6]) is 9%. Also, the “% Inhibition at 1 µM Vasopressin-1 Receptor” value in assay [3] (setting [6]) was 22%.

With “Pmp-D-Trp-Cys-Ile-Thr-Dap-Ala-Pro-Orn-NH2”, in assay [2] (setting [6]), the “% Inhibition at 1 µM Oxytocin Receptor” value amounted to 0%. The “% Inhibition at 1 µM Vasopressin-1 Receptor” value in assay [3] (setting [6]) turned out to be 23%.

Take “Sar-Arg-Cys-Val-Tyr-Ile-His-Pro-Thr ([Sar]RCVYIHPT; not fully specified (bridges); printed as Sar-Arg-Cys-Val-Tyr-Ile-His-Pro-Thr; also: oxorhenium(V) metal complex) [SEQ ID NO:165]”: the “% Inhibition at 1 µM” value in assay [4] was found to be 1%.

Consider “Sar-Arg-Val-Cys-Tyr-Ile-His-Pro-Thr ([Sar]RVCYIHPT; not fully specified (bridges); printed as Sar-Arg-Val-Cys-Tyr-Ile-His-Pro-Thr; also: oxorhenium(V) metal complex) [SEQ ID NO:164]”, for which the “% Inhibition at 1 µM” value in assay [4] is given as 1%.

On to [Chg][dW]CIT[Dap]AP[Orn]-NH2, for which the “% Inhibition at 1 µM Oxytocin Receptor” value in assay [2] (setting [6]) is 0%. Besides, in assay [3] (setting [6]), the “% Inhibition at 1 µM Vasopressin-1 Receptor” value is reported as 0%.

For the substance [dChg][dW]CIT[Dap]AP[Orn]-NH2, the “% Inhibition at 1 µM Oxytocin Receptor” value in assay [2] (setting [6]) was found to be 0%. Besides, in assay [3] (setting [6]), the “% Inhibition at 1 µM Vasopressin-1 Receptor” value is 8%.
